The target of this assay is T1, A. suum ACR-16 nAChR (Asu-ACR-16, homomeric nicotinic acetylcholine receptor) (Ascaris suum, UniProt A0A0K0QSL7).
T1 construct: homomeric receptor expressed from Asu-ACR-16 cRNA in Xenopus laevis oocytes
Description: two-electrode voltage-clamp in Xenopus oocytes, agonist concentration-response. The format is cell-based. Background: Two-electrode voltage clamp is typically applied to oocytes expressing channels or transporters.

T1 sequence (A0A0K0QSL7 entry or part of it): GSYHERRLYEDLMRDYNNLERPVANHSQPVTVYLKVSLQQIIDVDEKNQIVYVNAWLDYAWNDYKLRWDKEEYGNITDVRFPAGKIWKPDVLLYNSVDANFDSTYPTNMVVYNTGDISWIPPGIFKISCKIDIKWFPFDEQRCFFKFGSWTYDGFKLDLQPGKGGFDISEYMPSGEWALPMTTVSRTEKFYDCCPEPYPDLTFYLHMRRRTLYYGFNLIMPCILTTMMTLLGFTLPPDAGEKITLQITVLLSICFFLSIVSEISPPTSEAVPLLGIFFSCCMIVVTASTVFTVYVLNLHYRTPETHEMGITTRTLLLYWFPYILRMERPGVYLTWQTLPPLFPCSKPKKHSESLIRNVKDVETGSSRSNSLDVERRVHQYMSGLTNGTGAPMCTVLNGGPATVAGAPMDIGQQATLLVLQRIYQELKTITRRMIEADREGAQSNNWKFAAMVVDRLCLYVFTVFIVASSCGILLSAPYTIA

One may read the EC50 as the concentration giving half of the maximal effect. Low readings indicate a more potent agent, high ones a less potent agent. `CC(=O)OCC[N+](C)(C)C` [acetylcholine] came in with an EC50 of 4.9 ± 1.2 µM.

(Values after PMC10839021, “Pharmacological effects of monoterpene carveol on the neuromuscular system of nematodes and mammals” (Frontiers in Pharmacology, 2024).)
